# Tested on: 885512-296-R-J2-PDC complex spheroid growth, % test/control
# Experiment: Anticancer human tumor 885512-296-R-J2-PDC patient-derived breast carcinoma cell line growth inhibition [AhR]
# Details: for IC50: curve of first compound; for viability, T/C: stronger effect = lower value
# Method in brief: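 Agents were dosed in half-log steps down from roughly clinical Cmax, or from 10 microM where Cmax was unknown, alone and with AhR antagonists. Read-out: percent test/control growth of tumor spheroids containing HUVEC and MSC stromal cells.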
# [1] = second compound 0.1 µM, first compound 0.000949 µM
# [2] = second compound 0.1 µM, first compound 0.003 µM
# [3] = second compound 0.1 µM, first compound 0.00949 µM
# [4] = second compound 0.1 µM, first compound 0.03 µM
# [5] = second compound 0.1 µM, first compound 0.0949 µM
# [6] = second compound 0.1 µM, first compound 0.3 µM
# [7] = second compound 0.316 µM, first compound 0.000949 µM
# [8] = second compound 0.316 µM, first compound 0.003 µM
# [9] = second compound 0.316 µM, first compound 0.00949 µM
# [10] = second compound 0.316 µM, first compound 0.03 µM
# [11] = second compound 0.316 µM, first compound 0.0949 µM
# [12] = second compound 0.316 µM, first compound 0.3 µM
# [13] = second compound 1 µM, first compound 0.000949 µM
# [14] = second compound 1 µM, first compound 0.003 µM
# [15] = second compound 1 µM, first compound 0.00949 µM
# [16] = second compound 1 µM, first compound 0.03 µM
# [17] = second compound 1 µM, first compound 0.0949 µM
# [18] = second compound 1 µM, first compound 0.3 µM
# [19] = second compound 3.16 µM, first compound 0.000949 µM
# [20] = second compound 3.16 µM, first compound 0.003 µM
# [21] = second compound 3.16 µM, first compound 0.00949 µM
# [22] = second compound 3.16 µM, first compound 0.03 µM
# [23] = second compound 3.16 µM, first compound 0.0949 µM
# [24] = second compound 3.16 µM, first compound 0.3 µM
# [25] = second compound 10 µM, first compound 0.000949 µM
# [26] = second compound 10 µM, first compound 0.003 µM
# [27] = second compound 10 µM, first compound 0.00949 µM
# [28] = second compound 10 µM, first compound 0.03 µM
# [29] = second compound 10 µM, first compound 0.0949 µM
# [30] = second compound 10 µM, first compound 0.3 µM
# 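Further: spheroids exposed to compounds for seven days.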
smiles,measurement,setting,value
CC(C)CC(NC(=O)C(Cc1ccccc1)NC(=O)c1cnccn1)B(O)O (stereo not given) + Cc1ccccc1N=Nc1ccc(NC(=O)c2ccnn2C)c(C)c1,IC50,second compound 0.1 µM,6.58 nM
same,IC50,second compound 0.316 µM,7.08 nM
same,IC50,second compound 1 µM,6.29 nM
same,IC50,second compound 3.16 µM,6.14 nM
same,IC50,second compound 10 µM,3.21 nM
same,"viability, T/C",[1],96.7%
same,"viability, T/C",[2],105%
same,"viability, T/C",[3],26.3%
same,"viability, T/C",[4],1.3%
same,"viability, T/C",[5],0.26%
same,"viability, T/C",[6],0.15%
same,"viability, T/C",[7],115%
same,"viability, T/C",[8],122%
same,"viability, T/C",[9],26.6%
same,"viability, T/C",[10],1.13%
same,"viability, T/C",[11],0.18%
same,"viability, T/C",[12],0.13%
same,"viability, T/C",[13],111%
same,"viability, T/C",[14],101%
same,"viability, T/C",[15],21.8%
same,"viability, T/C",[16],1.27%
same,"viability, T/C",[17],0.5%
same,"viability, T/C",[18],0.13%
same,"viability, T/C",[19],82%
same,"viability, T/C",[20],94.2%
same,"viability, T/C",[21],26.8%
same,"viability, T/C",[22],1.47%
same,"viability, T/C",[23],0.16%
same,"viability, T/C",[24],0.14%
same,"viability, T/C",[25],58%
same,"viability, T/C",[26],50.3%
same,"viability, T/C",[27],25.8%
same,"viability, T/C",[28],1.46%
same,"viability, T/C",[29],0.3%
same,"viability, T/C",[30],0.18%
CCc1c2c(nc3ccc(O)cc13)-c1cc3c(c(=O)n1C2)COC(=O)[C@]3(O)CC + Cc1ccccc1N=Nc1ccc(NC(=O)c2ccnn2C)c(C)c1,IC50,second compound 0.1 µM,< 0.949 nM
same,IC50,second compound 0.316 µM,< 0.949 nM
same,IC50,second compound 1 µM,< 0.949 nM
same,IC50,second compound 3.16 µM,< 0.949 nM
same,IC50,second compound 10 µM,< 0.949 nM
same,"viability, T/C",[1],15.3%
same,"viability, T/C",[2],7.41%
same,"viability, T/C",[3],6.43%
same,"viability, T/C",[4],4.14%
same,"viability, T/C",[5],1.83%
same,"viability, T/C",[6],1.03%
same,"viability, T/C",[7],17.7%
same,"viability, T/C",[8],7.53%
same,"viability, T/C",[9],5.71%
same,"viability, T/C",[10],3.77%
same,"viability, T/C",[11],1.78%
same,"viability, T/C",[12],1.57%
same,"viability, T/C",[13],16.8%
same,"viability, T/C",[14],6.58%
same,"viability, T/C",[15],5.11%
same,"viability, T/C",[16],4.84%
same,"viability, T/C",[17],2.6%
same,"viability, T/C",[18],1.23%
same,"viability, T/C",[19],17.2%
same,"viability, T/C",[20],6.69%
same,"viability, T/C",[21],5.43%
same,"viability, T/C",[22],4.44%
same,"viability, T/C",[23],2.64%
same,"viability, T/C",[24],1.47%
same,"viability, T/C",[25],14.9%
same,"viability, T/C",[26],7.42%
same,"viability, T/C",[27],5.87%
same,"viability, T/C",[28],3.54%
same,"viability, T/C",[29],2.17%
same,"viability, T/C",[30],1.29%
Nc1ccccc1NC(=O)c1ccc(CNC(=O)OCc2cccnc2)cc1 + Cc1ccccc1N=Nc1ccc(NC(=O)c2ccnn2C)c(C)c1,IC50,second compound 0.1 µM,763 nM
same,IC50,second compound 0.316 µM,764 nM
same,IC50,second compound 1 µM,958 nM
same,IC50,second compound 3.16 µM,713 nM
same,IC50,second compound 10 µM,< 31.6 nM
same,"viability, T/C","second compound 0.1 µM, first compound 0.0316 µM",95.5%
same,"viability, T/C","second compound 0.1 µM, first compound 0.1 µM",89.5%
same,"viability, T/C","second compound 0.1 µM, first compound 0.316 µM",64.3%
same,"viability, T/C","second compound 0.1 µM, first compound 1 µM",43.7%
same,"viability, T/C","second compound 0.1 µM, first compound 3.16 µM",28.3%
same,"viability, T/C","second compound 0.1 µM, first compound 10 µM",11.1%
same,"viability, T/C","second compound 0.316 µM, first compound 0.0316 µM",92%
same,"viability, T/C","second compound 0.316 µM, first compound 0.1 µM",77.7%
same,"viability, T/C","second compound 0.316 µM, first compound 0.316 µM",68.8%
same,"viability, T/C","second compound 0.316 µM, first compound 1 µM",43.1%
same,"viability, T/C","second compound 0.316 µM, first compound 3.16 µM",26.5%
same,"viability, T/C","second compound 0.316 µM, first compound 10 µM",10.7%
same,"viability, T/C","second compound 1 µM, first compound 0.0316 µM",97.7%
same,"viability, T/C","second compound 1 µM, first compound 0.1 µM",91.5%
same,"viability, T/C","second compound 1 µM, first compound 0.316 µM",69.5%
same,"viability, T/C","second compound 1 µM, first compound 1 µM",48.7%
same,"viability, T/C","second compound 1 µM, first compound 3.16 µM",29.2%
same,"viability, T/C","second compound 1 µM, first compound 10 µM",11.2%
same,"viability, T/C","second compound 3.16 µM, first compound 0.0316 µM",75.2%
same,"viability, T/C","second compound 3.16 µM, first compound 0.1 µM",69.7%
same,"viability, T/C","second compound 3.16 µM, first compound 0.316 µM",62.3%
same,"viability, T/C","second compound 3.16 µM, first compound 1 µM",44.3%
same,"viability, T/C","second compound 3.16 µM, first compound 3.16 µM",27.7%
same,"viability, T/C","second compound 3.16 µM, first compound 10 µM",12.4%
same,"viability, T/C","second compound 10 µM, first compound 0.0316 µM",49.4%
same,"viability, T/C","second compound 10 µM, first compound 0.1 µM",45.1%
same,"viability, T/C","second compound 10 µM, first compound 0.316 µM",44.5%
same,"viability, T/C","second compound 10 µM, first compound 1 µM",32.5%
same,"viability, T/C","second compound 10 µM, first compound 3.16 µM",23.5%
same,"viability, T/C","second compound 10 µM, first compound 10 µM",12.8%

# From PubChem BioAssay AID1919006 (Molecular Pharmacology Branch, DTP, NCI, 2023)
